Test results: patent publication US7829665B2 (priority 2005, dated 2010)
pEC50, pIC50: −log10 of the molar value.

Columns and labels:
[1] = test system: HCV sub-genomic replicon in GS4.3 cells (HuH-7 hepatoma cells); test: Quantitation by ELISA of Neomycin phosphotransferase II (NPTII) in the HCV sub-genomic replicon, GS4.3; assay type: cell-based, hepatitis C virus; settings: Hepatitis C virus, Huh-7; GS4.3 cells, 72 h incubation, NPTII ELISA; read-out: Replicon EC50
Procedure, shortened: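 HuH-7 GS4.3 cells carrying HCV sub-genomic replicon 1377/NS3-3′, treated 72 h at 37 °C without G418 with 3-fold dilutions from 10 μM to 56 pM (1% DMSO). NPTII in cell lysates measured by direct ELISA with TMB readout at 450 nm. EC50 from 4-parameter fit of percent DMSO-control signal.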

[2] = molecular target: T1, full-length NS3/NS4A-2 (HCV NS3 protease) (Hepatitis C virus genotype 1a, UniProt P27958); test: NS3-NS4 protease assay / NS3 inhibition assay (RETS1 substrate, fluorescence kinetic read); assay type: biochemical; settings: recombinant E. coli or Baculovirus full-length NS3 with NS4A-2; read-out: NS3-NS4 IC50
T1 construct: Recombinant E. coli or Baculovirus full-length NS3 was diluted to 3.33 μM with assay buffer; made in house; host or cells: E. coli or baculovirus (BV) expression system
Procedure, shortened: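 Full-length NS3 from E. coli (2 nM in assay) or baculovirus (3 nM) was precomplexed with excess NS4A-2 peptide, then preincubated 10 min at room temperature with serially diluted compounds starting at 50 microM. Reaction was started with RETS1 substrate at 8 μM before addition and read kinetically for 30 min (ex 335/em 495 nm). Four-parameter IC50s were converted to Ki by Cheng-Prusoff using Km 2.03 μM (E. coli) or 1.74 μM (BV).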

T1 sequence (P27958 1027-1657): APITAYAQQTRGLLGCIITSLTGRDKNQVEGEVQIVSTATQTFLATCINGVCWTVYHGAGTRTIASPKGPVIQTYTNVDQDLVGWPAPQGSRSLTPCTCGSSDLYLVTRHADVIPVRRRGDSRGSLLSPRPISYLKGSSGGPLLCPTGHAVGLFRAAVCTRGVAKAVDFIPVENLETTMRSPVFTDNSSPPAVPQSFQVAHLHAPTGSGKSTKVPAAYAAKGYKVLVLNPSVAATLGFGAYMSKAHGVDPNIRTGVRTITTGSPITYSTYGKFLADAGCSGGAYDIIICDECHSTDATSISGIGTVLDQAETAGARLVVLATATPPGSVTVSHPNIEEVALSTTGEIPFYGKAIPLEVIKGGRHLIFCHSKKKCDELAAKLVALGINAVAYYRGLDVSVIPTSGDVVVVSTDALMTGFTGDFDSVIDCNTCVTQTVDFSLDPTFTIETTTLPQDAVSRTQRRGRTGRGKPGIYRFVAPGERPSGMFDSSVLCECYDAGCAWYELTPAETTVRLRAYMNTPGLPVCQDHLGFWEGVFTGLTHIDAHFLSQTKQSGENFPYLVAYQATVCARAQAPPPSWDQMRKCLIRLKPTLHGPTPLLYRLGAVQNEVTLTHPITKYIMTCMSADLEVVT

Structure (SMILES)	pEC50 [1]	pIC50 [2]
CC(C)(C)OC(=O)N[C@H]1CCCCC/C=C\[C@@H]2C[C@@]2(C(=O)NCCN2CCCCC2)NC(=O)[C@@H]2C[C@@H](OC(=O)N3Cc4cccc(F)c4C3)CN2C1=O [Compound 604]	< 5.00	< 5.00
CC(C)(C)OC(=O)N[C@H]1CCCCC/C=C\[C@@H]2C[C@@]2(C(=O)NCc2cccc(C(O)C(F)(F)F)c2)NC(=O)[C@@H]2C[C@@H](OC(=O)N3Cc4cccc(F)c4C3)CN2C1=O (stereo partly shown) [Compound 605]	> 6.00	> 6.00
CC(C)(C)OC(=O)N[C@H]1CCCCC/C=C\[C@@H]2C[C@@]2(C(=O)NCc2ccc(C(O)C(F)(F)F)cc2)NC(=O)[C@@H]2C[C@@H](OC(=O)N3Cc4cccc(F)c4C3)CN2C1=O (stereo partly shown) [Compound 606]	> 6.00	> 6.00
CC(C)(C)OC(=O)N[C@H]1CCCCC/C=C\[C@@H]2C[C@@]2(C(=O)NC2CC2)NC(=O)[C@@H]2C[C@@H](OC(=O)N3Cc4cccc(F)c4C3)CN2C1=O [Compound 609]	> 6.00	> 7.00
CN(C)C(=O)[C@@]12C[C@H]1/C=C\CCCCC[C@H](NC(=O)OC(C)(C)C)C(=O)N1C[C@H](OC(=O)N3Cc4cccc(F)c4C3)C[C@H]1C(=O)N2 [Compound 610]	< 5.00	> 6.00
CC(C)(C)OC(=O)N[C@H]1CCCCC/C=C\[C@@H]2C[C@@]2(C(=O)NCCF)NC(=O)[C@@H]2C[C@@H](OC(=O)N3Cc4cccc(F)c4C3)CN2C1=O [Compound 611]	> 5.00	> 6.00
CC(C)(C)OC(=O)N[C@H]1CCCCC/C=C\[C@@H]2C[C@@]2(C(=O)NCC(F)F)NC(=O)[C@@H]2C[C@@H](OC(=O)N3Cc4cccc(F)c4C3)CN2C1=O [Compound 612]	> 6.00	> 6.00
CC(C)(C)OC(=O)N[C@H]1CCCCC/C=C\[C@@H]2C[C@@]2(C(=O)NCC(O)(C(F)(F)F)C(F)(F)F)NC(=O)[C@@H]2C[C@@H](OC(=O)N3Cc4cccc(F)c4C3)CN2C1=O [Compound 613]	> 6.00	> 6.00
CC(C)(C)OC(=O)N[C@H]1CCCCC/C=C\[C@@H]2C[C@@]2(C(=O)Nc2nccs2)NC(=O)[C@@H]2C[C@@H](OC(=O)N3Cc4cccc(F)c4C3)CN2C1=O [Compound 614]	> 6.00	> 6.00
CC(C)(C)OC(=O)N[C@H]1CCCCC/C=C\[C@@H]2C[C@@]2(C(=O)NCC#N)NC(=O)[C@@H]2C[C@@H](OC(=O)N3Cc4cccc(F)c4C3)CN2C1=O [Compound 615]	> 5.00	> 6.00
CC(C)(C)CNC(=O)[C@@]12C[C@H]1/C=C\CCCCC[C@H](NC(=O)OC(C)(C)C)C(=O)N1C[C@H](OC(=O)N3Cc4cccc(F)c4C3)C[C@H]1C(=O)N2 [Compound 616]	> 6.00	> 6.00
CC(C)(C)OC(=O)N[C@H]1CCCCC/C=C\[C@@H]2C[C@@]2(C(=O)NCc2cccc(C(=O)O)c2)NC(=O)[C@@H]2C[C@@H](OC(=O)N3Cc4cccc(F)c4C3)CN2C1=O [Compound 617]	< 5.00	> 7.00
CC(NC(=O)[C@@]12C[C@H]1/C=C\CCCCC[C@H](NC(=O)OC(C)(C)C)C(=O)N1C[C@H](OC(=O)N3Cc4cccc(F)c4C3)C[C@H]1C(=O)N2)c1ccncc1 (stereo partly shown) [Compound 618]	> 5.00	> 7.00
CC(C)(C)OC(=O)N[C@H]1CCCCC/C=C\[C@@H]2C[C@@]2(C(=O)NCC2(O)CC2)NC(=O)[C@@H]2C[C@@H](OC(=O)N3Cc4cccc(F)c4C3)CN2C1=O [Compound 619]	> 6.00	> 7.00
CC(C)(C)OC(=O)N[C@H]1CCCCC/C=C\[C@@H]2C[C@@]2(C(=O)NCCO)NC(=O)[C@@H]2C[C@@H](OC(=O)N3Cc4cccc(F)c4C3)CN2C1=O [Compound 620]	> 5.00	> 6.00
CCCNC(=O)[C@@]12C[C@H]1/C=C\CCCCC[C@H](N)C(=O)N1C[C@H](OC(=O)N3Cc4cccc(F)c4C3)C[C@H]1C(=O)N2 [Compound 621]	< 5.00	< 5.00
N[C@H]1CCCCC/C=C\[C@@H]2C[C@@]2(C(=O)NCC2CC2)NC(=O)[C@@H]2C[C@@H](OC(=O)N3Cc4cccc(F)c4C3)CN2C1=O [Compound 622]	> 5.00	> 5.00
O=C1N[C@]2(C(=O)NCC3CC3)C[C@H]2/C=C\CCCCC[C@H](NC2CCC2)C(=O)N2C[C@H](OC(=O)N3Cc4cccc(F)c4C3)C[C@@H]12 [Compound 624]	> 6.00	> 5.00
CCCNC(=O)[C@@]12C[C@H]1/C=C\CCCCC[C@H](NCc1ccc(F)c(F)c1)C(=O)N1C[C@H](OC(=O)N3Cc4cccc(F)c4C3)C[C@H]1C(=O)N2 [Compound 625]	> 5.00	> 5.00

Structure (SMILES)	pEC50 [1]	pIC50 [2]
O=C1N[C@]2(C(=O)NCC3CC3)C[C@H]2/C=C\CCCCC[C@H](NCc2ccc(F)c(F)c2)C(=O)N2C[C@H](OC(=O)N3Cc4cccc(F)c4C3)C[C@@H]12 [Compound 626]	> 5.00	> 6.00
CC(C)(C)OC(=O)N[C@H]1CCCCC/C=C\[C@@H]2C[C@@]2(C(=O)NCC2CC2)NC(=O)[C@@H]2C[C@@H](OC(=O)N3Cc4cccc(Cl)c4C3)CN2C1=O [Compound 627]	> 7.00	> 7.00
C[C@H](NC(=O)[C@@]12C[C@H]1/C=C\CCCCC[C@H](NC(=O)OC(C)(C)C)C(=O)N1C[C@H](OC(=O)N3Cc4cccc(F)c4C3)C[C@H]1C(=O)N2)c1ccc(F)cn1 [Compound 628]	> 6.00	> 6.00
C[C@@H](NC(=O)[C@@]12C[C@H]1/C=C\CCCCC[C@H](NC(=O)OC(C)(C)C)C(=O)N1C[C@H](OC(=O)N3Cc4cccc(F)c4C3)C[C@H]1C(=O)N2)c1ccc(F)cn1 [Compound 629]	> 5.00	> 6.00
CC(C)(C)OC(=O)N[C@H]1CCCCC/C=C\[C@@H]2C[C@@]2(C(=O)Nc2cc(C3CC3)[nH]n2)NC(=O)[C@@H]2C[C@@H](OC(=O)N3Cc4cccc(F)c4C3)CN2C1=O [Compound 630]	> 5.00	> 6.00
CNC(=O)[C@@H](NC(=O)[C@@]12C[C@H]1/C=C\CCCCC[C@H](NC(=O)OC(C)(C)C)C(=O)N1C[C@H](OC(=O)N3Cc4cccc(F)c4C3)C[C@H]1C(=O)N2)c1ccc(F)cc1 [Compound 631]	> 6.00	> 7.00
CNC(=O)[C@H](NC(=O)[C@@]12C[C@H]1/C=C\CCCCC[C@H](NC(=O)OC(C)(C)C)C(=O)N1C[C@H](OC(=O)N3Cc4cccc(F)c4C3)C[C@H]1C(=O)N2)c1ccc(F)cc1 [Compound 632]	> 5.00	> 6.00
CC(C)(C)OC(=O)N[C@H]1CCCCC/C=C\[C@@H]2C[C@@]2(C(=O)N[C@@H]2CCS(=O)(=O)C2)NC(=O)[C@@H]2C[C@@H](OC(=O)N3Cc4cccc(F)c4C3)CN2C1=O [Compound 633]	> 6.00	> 6.00
CC(C)(C)OC(=O)N[C@H]1CCCCC/C=C\[C@@H]2C[C@@]2(C(=O)N[C@H]2CCS(=O)(=O)C2)NC(=O)[C@@H]2C[C@@H](OC(=O)N3Cc4cccc(F)c4C3)CN2C1=O [Compound 634]	> 5.00	> 6.00
CC(C)(C)OC(=O)N[C@H]1CCCCC/C=C\[C@@H]2C[C@@]2(C(=O)Nc2n[nH]c(C3CC3)n2)NC(=O)[C@@H]2C[C@@H](OC(=O)N3Cc4cccc(F)c4C3)CN2C1=O [Compound 635]	> 6.00	> 7.00
CC(C)(C)OC(=O)N[C@H]1CCCCC/C=C\[C@@H]2C[C@@]2(C(=O)Nc2n[nH]cc2C2CC2)NC(=O)[C@@H]2C[C@@H](OC(=O)N3Cc4cccc(F)c4C3)CN2C1=O [Compound 636]	> 7.00	> 6.00
N#CNC(=O)[C@@]12C[C@H]1/C=C\CCCCC[C@H](NC(=O)OC1CCCC1)C(=O)N1C[C@H](OC(=O)N3Cc4cccc(F)c4C3)CC1C(=O)N2 (stereo partly shown) [Compound 637]	< 5.00	> 7.00
N#CNC(=O)[C@@]12C[C@H]1/C=C\CCCCC[C@H](NC(=O)C1CC1)C(=O)N1C[C@H](OC(=O)N3Cc4cccc(F)c4C3)CC1C(=O)N2 (stereo partly shown) [Compound 638]	< 5.00	> 6.00
CC(C)OC(=O)N[C@H]1CCCCC/C=C\[C@@H]2C[C@@]2(C(=O)NC#N)NC(=O)C2C[C@@H](OC(=O)N3Cc4cccc(F)c4C3)CN2C1=O (stereo partly shown) [Compound 639]	< 5.00	> 6.00
CC(C)(C)C(=O)N[C@H]1CCCCC/C=C\[C@@H]2C[C@@]2(C(=O)NC#N)NC(=O)C2C[C@@H](OC(=O)N3Cc4cccc(F)c4C3)CN2C1=O (stereo partly shown) [Compound 640]	< 5.00	> 7.00
CC(C)(C)OC(=O)N[C@H]1CCCCC/C=C\[C@@H]2C[C@@]2(C(=O)NC#N)NC(=O)C2C[C@@H](OC(=O)N3Cc4cccc(Cl)c4C3)CN2C1=O (stereo partly shown) [Compound 641]	> 5.00	> 7.00
N#CNC(=O)[C@@]12C[C@H]1/C=C\CCCCC[C@H](NC(=O)CCC(F)(F)F)C(=O)N1C[C@H](OC(=O)N3Cc4cccc(F)c4C3)CC1C(=O)N2 (stereo partly shown) [Compound 642]	< 5.00	> 6.00
Cc1ccc(CN[C@H]2CCCCC/C=C\[C@@H]3C[C@@]3(C(=O)NC#N)NC(=O)C3C[C@@H](OC(=O)N4Cc5cccc(F)c5C4)CN3C2=O)o1 (stereo partly shown) [Compound 643]	< 5.00	> 6.00
O=C(N[C@H]1CCCCC/C=C\[C@@H]2C[C@@]2(C(=O)NCC2CC2)NC(=O)[C@@H]2C[C@@H](OC(=O)N3CCc4ccccc4C3)CN2C1=O)OC1CCCC1 [Compound 644]	> 6.00	> 7.00
